According to ChEMBL document CHEMBL1157539, “Thousands of chemical starting points for antimalarial lead identification” (Nature, 2010):

tested on: Plasmodium falciparum; test: GSK_TCMDC: Inhibition of Plasmodium falciparum 3D7 in whole erythrocytes, using parasite LDH activity as an index of growth.; format: functional, organism-based; conditions: Plasmodium falciparum, 3D7

| Structure (SMILES) | XC50 [µM] |
| --- | --- |
| COc1ccc(NC(=O)/C=C/c2ccc(Oc3ccccc3Cl)c([N+](=O)[O-])c2)cc1OCCN(C(C)C)C(C)C | 0.883 |
| CCN(CC)Cc1ccc2c(=O)cc(CCc3cccc(F)c3F)n(CC(=O)N(Cc3ccc(-c4ccc(C(F)(F)F)cc4)cc3)C(C)C)c2c1 | 0.782 |
| COc1cc2nc(N3CCN(C(=O)c4ccco4)CC3)nc(NCc3ccccc3)c2cc1OC | 0.167 |
| CCCNCc1ccc(-c2ccc(CN(CCOC)C(=O)CC3CCCC3=O)cc2)nc1 (centres undefined) | 1.24 |
| COc1ccc(CN2CCCN(Cc3cccc(C(=O)Nc4ccc(C)c(F)c4)c3)CC2)cc1 | 1.31 |
| Cc1cnccc1/C=C/c1cccc(OCCN2CCc3ccc(S(C)(=O)=O)cc3CC2)c1 | 0.267 |
| COc1ccc(C2C(C(=O)Nc3cc(C)ccc3OC)c3ccccc3C(=O)N2C)cc1 (centres undefined) | 0.982 |
| COc1cc(Cc2cnc(N)nc2N)cc(OCCCCc2ccc([N+](=O)[O-])cc2)c1OC | 0.989 |
| CCCCCn1c(Sc2ccc(C#N)c([N+](=O)[O-])c2)nnc1-c1cc(OC)cc(OC)c1 | 0.956 |
| COc1ccc(O)c(C(=O)c2cc(C(=O)NCCc3ccccc3)c(=O)n(CCc3ccccc3)c2)c1 | 1.01 |
| c1ccc(-c2ccc3c(Nc4ccc5[nH]ncc5c4)ccnc3c2)nc1 | 0.822 |
| NCC1CCCN1Cc1cccc(-c2ccc(-c3nc4ccccc4[nH]3)s2)c1 (centres undefined) | 1.04 |
| c1ccc(CCNc2ncnc3c2[nH]c2ccccc23)cc1 | 0.601 |
| COc1ccc(CCN2CCC(NCc3cccc(N(C)C)c3)CC2)cc1 | 1.32 |
| N#Cc1ccc(C=Cc2nccc3c2[nH]c2ccccc23)cc1 | 0.643 |
| COc1cc2nc(NCC3CCCO3)n3nc(-c4ccccc4)nc3c2cc1OC (centres undefined) | 0.211 |
| CCCN1CCN(c2ccc(NS(=O)(=O)c3ccc(C(=O)Nc4ccc(Cl)cc4)cc3)cc2)CC1 | 1.11 |
| Cc1noc(C)c1-c1ccc2c(Nc3ccc(Cl)cc3)c(C(N)=O)cnc2c1 | 0.826 |
| COc1c(F)ccc2ncc(Cl)c(CCN3CCC(NCc4ccc5c(n4)NC(=O)CS5)CC3)c12 | 0.544 |
| O=C(N[C@@H](CC1CCCCC1)C(=O)NC1CCCc2ccccc21)c1ccc(O)c(-c2ccc(Cl)c(Cl)c2)c1 (some centres undefined) | 0.195 |
| N#Cc1ccccc1C1CCN(C2CCC(Nc3cc(-c4cccnc4)ccn3)CC2)CC1 (centres undefined) | 0.958 |
| CC(C)CCNCc1c(O)ccc2ccccc12 | 1.67 |
| COc1cc2ncnc(Nc3ccc(OCc4ccccc4Br)c(OC)c3)c2cc1OC | 0.427 |
| CS(=O)(=O)Nc1cccc(-c2cnc3[nH]cc(-c4cc(N)cc(C(=O)O)c4)c3c2)c1 | 1.08 |
| NC1=Nc2ccc(Cl)cc2C1(O)c1ccccc1 (centres undefined) | 0.876 |

| Structure (SMILES) | XC50 [µM] |
| --- | --- |
| COc1cc(N(Cc2ccc(F)cc2)C(=O)c2ccc(-c3ccccc3)cc2)ccc1OCCN1CCCC1 | 0.83 |
| CCc1cccc2c(C#N)cn(CC(=O)Nc3ccc(OC)cc3)c12 | 0.772 |
| O=c1cc(NCCCNCc2ccc(Cl)c(Cl)c2)[nH]c2ccc(C(F)(F)F)cc12 | 0.524 |
| CN(C)c1ccc2nc(N)nc(N)c2c1Cl | 0.475 |
| Cc1nc2c(c(O)c1Cl)-c1ccc(Oc3cccc(C(F)(F)F)c3)cc1C2=O | 0.0379 |
| CN(C)CCNCc1cccc(-c2ccc3c(Nc4ccc(F)cc4Cl)ccnc3c2)c1 | 0.809 |
| O=C1C(=Cc2cc(Cc3ccccc3)ccc2O)SC(=S)N1Cc1ccccc1 | 0.943 |
| Cc1nc(C)c(-c2ccc(C(F)(F)F)cc2)c(O)c1Br | 0.142 |
| Cc1ccccc1CCNC(=O)c1cnc(N2CCN(c3ccncc3)CC2)c(Cl)c1 | 1.06 |
| COc1cc2c(cc1C(F)(F)F)N(C(=O)Nc1cc(F)cc(-c3cccnn3)c1)CC2 | 0.275 |
| COc1ccc(-c2cccc(NC(=O)c3cccc(Cl)c3)c2)cc1CN1CCNCC1 | 0.803 |
| COc1ccc2c(OC)ccc(CNCCCCCCNCc3ccc(OC)c4ccc(OC)cc34)c2c1 | 0.399 |
| CCCOc1ccc(CCCON2C(N)=NC(N)=NC2(C)C)cc1 | 0.0032 |
| CC(C)(CNCc1ccc(F)c(F)c1)c1nc(-c2ccnc(N)n2)c(-c2ccc(Cl)c(O)c2)[nH]1 | 0.74 |
| Cc1cc(CNC(=O)[C@H](CC2CCCCC2)Nc2ccc(C#N)c3ccccc23)c(C(F)(F)F)o1 | 1.18 |
| COc1ccc(CCNCCCCCCNCCc2cccc([N+](=O)[O-])c2)cc1OC | 0.997 |
| O=S(=O)(Nc1ccc(CCN2CCC(N3CCCCC3)CC2)cc1)c1cccc2cccnc12 | 1.06 |
| SC(=Nc1ccc2c(c1)OCCO2)NN=Cc1ccccn1 | 1.05 |
| Clc1ccc(-c2cc(-c3csc(NCCN4CCCCC4)n3)on2)cc1 | 0.989 |
| NC(=O)c1cccc(Nc2nccc(Nc3ccc(Oc4cccc(Cl)c4)c(Cl)c3)n2)c1 | 1.28 |
| CC(C)(C)c1cc(C(=O)Nc2ccc(C(=N)N)cc2)c(O)c(C(C)(C)C)c1 | 0.763 |
| CNC(=O)c1cnc(Nc2ccc(OCC(O)CN(C)C)cc2)nc1Nc1cccc([N+](=O)[O-])c1 (centres undefined) | 0.617 |
| CC(C)CC(=O)N1CCNC[C@@H]1C(=O)NCc1ccc(Cl)c(Cl)c1 | 0.95 |
| CNCCNCc1cccc(-c2ccc(-c3nc4cccc(C)c4[nH]3)cc2)c1 | 0.798 |
| Cc1c(N=O)cc(C(C)(C)C)c(O)c1C(=O)Nc1ccc([N+](=O)[O-])cc1Cl | 0.775 |

| Structure (SMILES) | XC50 [µM] |
| --- | --- |
| CN1CCN(CCCN(Cc2ccc(-c3cccc(CNCc4ccc5c(c4)OCO5)c3)cc2)C(=O)NCCc2ccccc2)CC1 | 0.845 |
| O=C1Nc2cccc3c2C1(CCCCN1CCC(c2c[nH]c4cc(C(F)(F)F)ccc24)CC1)CCC3 (centres undefined) | 0.715 |
| O=C(NC1CC1)c1ccc(N2CCCC(COc3ccccc3F)C2)nc1 (centres undefined) | 0.897 |
| Cn1nc(-c2ccc(NC(=O)Nc3cc(C(F)(F)F)ccc3F)cc2)c2cnc(NCCCCN3CCCC3)nc21 | 0.531 |
| CCN(CC)CCOc1ccc(C(O)(C#CC(O)(c2ccc(C)cc2)c2ccc(OCCN(CC)CC)cc2)c2ccc(C)cc2)cc1 (centres undefined) | 0.903 |
| COc1ccc2c(NN=Cc3cccnc3)ccnc2c1 | 0.684 |
| Clc1cccc(-c2nc(Nc3ccnc(-c4ccc(CN5CCOCC5)cc4)c3)c3ccccc3n2)c1 | 0.71 |
| NC1CCN(Cc2cccc(-c3csc(-c4nc5ccccc5[nH]4)c3)c2)C1 (centres undefined) | 0.892 |
| O=C(/C=C/c1ccc(Cl)cc1)NCCCCCN1CCCC(C(=O)Nc2ccc(F)c(Cl)c2)C1 (centres undefined) | 1.12 |
| CC(=O)Nc1ccc(CN2CCC(CNC(=O)c3cc(-c4cccc(Cl)c4)cs3)C2)cc1 (centres undefined) | 1.12 |
| COC(=O)c1ccc(CC(C)NCC(O)c2cccc(OC(F)(F)F)c2)cc1 (centres undefined) | 0.863 |
| N#Cc1cccc(C(=O)Nc2ccc(-c3ccc(CN4CCCC4)cc3)cc2)c1 | 1.15 |
| CC(C)NCc1ccc(-c2cccc(NC(=O)c3ccc(F)cc3)c2)cc1 | 0.881 |
| Nc1cc(-c2ccc(-c3cccs3)s2)nc2ccccc12 | 0.598 |
| N#Cc1cccc(C(=O)Nc2cccc(-c3ccc(CN4CCCC4)cc3)c2)c1 | 0.695 |
| CC12CCC(CN(CC(O)Cn3c4ccccc4c4cc(I)ccc43)C1)C2(C)C (centres undefined) | 1.16 |
| FC(F)(F)c1ccc2[nH]c(-c3ccc(-c4ccc(CNCCN5CCNCC5)cc4)s3)nc2c1 | 0.91 |
| C[C@H]1CN(Cc2cccc(-c3cc(CNC(=O)c4cccc(C(=O)c5ccc(Cl)c(Cl)c5)c4)ccc3F)c2)CCN1 | 1.14 |
| CCC[C@@H]([C@@H](Cc1ccc(C)s1)C(=O)N[C@@H](CNC(C)=O)C(=O)Nc1nccs1)N(O)C=O | 0.176 |
| Cc1cc(Nc2ccc(Cl)c(Cl)c2)n2nc(C)nc2n1 | 0.258 |
| CN(c1cc(NC(=O)c2ccc(F)cc2)ccn1)C1CCN(Cc2cccc(O)c2)CC1 | 0.922 |
| O=C(Nc1cc(Cl)cc(Cl)c1)c1cc(Cl)c(=O)n(Cc2cccc(Cl)c2)c1 | 0.752 |
| COc1cc2nc(N(C)C)nc(Nc3ccc(OCc4ccccc4)cc3)c2cc1OC | 0.0718 |
| Oc1ccc(CCNc2nc(NCc3ccccc3-c3ccc(C(F)(F)F)cc3)nc(NC3CCNCC3)n2)cc1 | 0.924 |
| COc1ccc(OC)c2c1CCN(CCN1CCC(C(=O)Nc3ccc(C(=O)Nc4ccc(Cl)cc4)cc3)CC1)C2 | 0.582 |

| Structure (SMILES) | XC50 [µM] |
| --- | --- |
| N=C(NCCc1c[nH]c2ccccc12)NCc1ccccc1Cl | 0.112 |
| CON(C)C(=O)[C@@H](CCCCNC(=O)OCc1ccccc1)NC(=O)OC(C)(C)C | 0.195 |
| O=c1cc(NCCCNCc2cc(Br)cs2)[nH]c2ccccc12 | 1.06 |
| CCOc1cc2ncnc(Nc3ccc(OCc4c(Cl)cccc4Cl)c(OC)c3)c2cc1OCC | 1.05 |
| COc1cc([N+](=O)[O-])ccc1NC(=O)Nc1ccc(OC(F)(F)F)cc1 | 1.03 |
| CC1(C)N=C(N)N=C(N)N1c1ccc(Cl)c(Cl)c1 | 0.0032 |
| O=C1CN(C(=O)CCC2CCCC2)C(c2ccc(F)cc2)c2cc(F)ccc2N1 (centres undefined) | 0.168 |
| FC(F)(F)Oc1ccc(-c2cnc3ccc(NCc4ccncc4)nn23)cc1 | 0.866 |
| Cc1cccc(Nc2nc3nonc3nc2Nc2cccc(Cl)c2Cl)c1C | 1.03 |
| CN1CCC=C(C(=O)NCC(C)(C)c2nc(-c3ccc(Cl)c(O)c3)c(-c3ccncc3)[nH]2)C1 | 1 |
| O=C(c1cc2nc3c(c(C(F)(F)F)n2n1)CCc1ccccc1-3)N1CCN2CCCC2C1 (centres undefined) | 0.947 |
| COc1cc2nc(N(C)CC3COc4ccccc4O3)nc(N)c2cc1OC (centres undefined) | 1.55 |
| CCCC1N=C(N)N=C(N)N1c1ccc(C)cc1 (centres undefined) | 0.0952 |
| COc1cc(-c2ccc3c(-c4ccc(C(=O)N5CCN(C)CC5)cc4)n[nH]c3n2)cc(OC)c1OC | 1.33 |
| O=C(C=Cc1ccc(Cl)c(Cl)c1)NCCCCCN1CCC(CCNS(=O)(=O)c2ccc(F)cc2)CC1 | 1.09 |
| CCN(CC)C(=O)C(=O)c1c[nH]c2ccc(Cl)cc12 | 0.0811 |
| COCCN1CCN(Cc2ccc(-c3ccc(-c4nc5cc(F)ccc5[nH]4)cc3)cc2)CC1 | 0.717 |
| Cc1cc(O)cc2c(C3CCN(CC4CCN(C(=O)/C=C/c5ccc(Cl)c(Cl)c5)CC4)CC3)c[nH]c12 | 1.09 |
| O=C(CCc1c[nH]cn1)Nc1cccc(-c2cccc(-c3nc4cc(C(F)(F)F)ccc4[nH]3)c2)c1 | 0.132 |
| COc1ccc2nccc([C@@H](O)CN3CCC(NC(=O)/C=C/c4ccnc5ccccc45)CC3)c2c1 | 0.939 |
| CC(=O)Nc1ccc(OCCN(Cc2ccccc2OC(F)(F)F)c2ccc(C(F)(F)F)c(C#N)c2)c(Cl)c1 | 0.456 |
| CCN(CC)C(=O)C1CCCN(c2cc(C)nc(Nc3ccc(Cl)cc3)n2)C1 (centres undefined) | 0.718 |
| Cc1[nH]c(C)c([N+](=O)[O-])c(=O)c1-c1ccc(Oc2ccccc2)cc1 | 0.266 |
| CC[C@H]1CN2CC[C@H]1C[C@H]2[C@H](O)c1ccnc2ccc(OC)cc12 | 0.154 |
